According to ChEMBL document CHEMBL4665806, “Structure-based optimisation of orally active & reversible MetAP-2 inhibitors maintaining a tight 'molecular budget'” (Bioorg Med Chem Lett, 2020):
In brackets after ≈: the same amount, converted by molar mass. Activity calls are given as the source filed them. The rule behind the calls is not given here.

Columns and labels:
[1] = Intrinsic clearance in human; format: ADME
[2] = Chromatographic hydrophobicity index, log D of the compound at pH 7.4; format: physicochemical; conditions: buffer
[3] = Intrinsic clearance in rat; format: ADME
Mus musculus [4] = experiment: Antiinflammatory activity in anti-KLH treated mouse model of B-cell adaptive immunity assessed as inhibition of secondary response at […] mg/kg, po administered twice daily from day 21 to day 31 relative to control; format: functional, organism-based; conditions: dose 3.0 mg/kg, time 10.0 day
[5] = Oral bioavailability in mouse at 10 mg/kg; format: ADME, organism-based; conditions: in vivo
[6] = Clearance in po dosed mouse; format: ADME, organism-based; conditions: in vivo
[7] = Half life in po dosed mouse; format: ADME, organism-based; conditions: in vivo
Mus musculus [8] = experiment: Antiinflammatory activity in antigen KLH-TNP- treated mouse model of B-cell adaptive immunity assessed as inhibition of secondary response at 10 mg/kg, po administered twice daily from day 21 to day 31 relative to control; format: functional; design: scale not given: the % may be the effect or the level left; conditions: time 10 day
[9] = Volume of distribution at steady state in po dosed mouse; format: ADME, organism-based; conditions: in vivo
Mus musculus [10] = experiment: Antiinflammatory activity in antigen KLH-TNP- treated po dosed mouse model of B-cell adaptive immunity assessed as inhibition of secondary response administered twice daily from day 21 to day 31; format: functional, organism-based; conditions: dose mg/kg 3-30, time 10.0 day
Mus musculus [11] = experiment: Antiinflammatory activity in antigen KLH-TNP- treated mouse model of B-cell adaptive immunity assessed as inhibition of secondary response at 3 mg/kg, po administered twice daily from day 21 to day 31 relative to control; format: functional; design: scale not given: the % may be the effect or the level left; conditions: time 10 day
[12] = target: Methionine aminopeptidase 2 (Mus musculus, UniProt O08663); experiment: Inhibition of MetAP2 in mouse B cells assessed as reduction in IgG secretion; format: cell-based, B-cell
Mus musculus [13] = experiment: Antiinflammatory activity in antigen KLH-TNP- treated mouse model of B-cell adaptive immunity assessed as inhibition of secondary response at 30 mg/kg, po administered twice daily from day 21 to day 31 relative to control; format: functional; design: scale not given: the % may be the effect or the level left; conditions: dose 3 mg/kg; time 10 day
[14] = Solubility of the compound; format: physicochemical

Methionine aminopeptidase 2, sequence (O08663 whole entry): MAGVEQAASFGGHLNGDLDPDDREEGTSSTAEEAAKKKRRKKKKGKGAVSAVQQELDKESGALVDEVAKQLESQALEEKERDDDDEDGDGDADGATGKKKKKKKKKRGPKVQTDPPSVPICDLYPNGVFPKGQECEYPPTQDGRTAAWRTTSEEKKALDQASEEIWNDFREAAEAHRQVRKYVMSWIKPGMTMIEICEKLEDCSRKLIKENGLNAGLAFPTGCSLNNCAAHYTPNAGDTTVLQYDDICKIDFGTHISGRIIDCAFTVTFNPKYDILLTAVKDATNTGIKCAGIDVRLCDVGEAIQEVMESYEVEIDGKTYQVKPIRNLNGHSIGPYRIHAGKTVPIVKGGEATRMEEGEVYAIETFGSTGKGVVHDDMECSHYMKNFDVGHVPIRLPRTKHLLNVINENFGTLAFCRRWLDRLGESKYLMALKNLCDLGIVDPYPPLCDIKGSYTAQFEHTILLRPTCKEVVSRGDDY

CLint scaled [1] [mL/min/kg] | chromatographic logD [2] | CLint scaled [3] [mL/min/kg] | bioavailability [5] [%] | CL/F [6] [mL/min/kg] | half-life [7] [h] | Vdss [9] [L/kg] | IC50 [12] [nM] | solubility [14] [µg/mL] | SMILES | Activity (Mus musculus [4]) | Activity (Mus musculus [8]) [%] | Activity (Mus musculus [10]) | Activity (Mus musculus [11]) [%] | Activity (Mus musculus [13]) [%]
< 1 | 3.1 | < 1 |  |  |  |  |  |  | CC(C)Oc1cc(N2CCNCC2)ccc1-c1c(C(N)=O)[nH]c2cc(F)c(Cl)cc12 |  |  |  |  | 
< 1 | 2.8 | < 1 | 89 | 45 | 4.5 | 7.7 | 39.8 | 629 (≈ 1520 µM) | CC(C)Oc1cc(N2CCNCC2)ccc1-c1c(C(N)=O)[nH]c2cc(F)c(F)cc12 | Active | 39 | Dose-dependent effect | 15 | 89
